Where “and” joins values, the source holds several entries; their conditions need not be identical. Equal values may be shown once. Inconclusive results and toxic doses are left out.
System: L1210 leukemia ip in BDF1 mice, survival T/C
Assay: NCI In Vivo Anticancer Drug Screen. Data for tumor model L1210 Leukemia (intraperitoneal) in B6D2F1 (BDF1) mice
Details: higher = longer survival
Procedure, shortened: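 Value reflects the ratio of survival in compound-treated mice to survival in vehicle-treated controls, with both groups carrying the same transplanted tumor.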

In the case of `CC[C@H]1CN2CCc3cc(OC)c(OC)cc3[C@@H]2C[C@@H]1C[C@H]1NCCc2cc(O)c(OC)cc21`, the T/C (endpoint: mean survival time, dose: 0.5 mg/kg/injection, schedule: Q01DX015 (ip), vehicle: saline) is reported as 105 % of control and 119 % of control, the T/C (endpoint: mean survival time, dose: 1.0 mg/kg/injection, schedule: Q01DX009 (ip), vehicle: saline) is reported as 116 % of control and the T/C (endpoint: mean survival time, dose: 1.0 mg/kg/injection, schedule: Q01DX015 (ip), vehicle: saline) is reported as 115 % of control and 120 % of control. The T/C (endpoint: mean survival time, dose: 2.0 mg/kg/injection, schedule: Q01DX009 (ip), vehicle: saline) was 115 % of control, the T/C (endpoint: mean survival time, dose: 2.0 mg/kg/injection, schedule: Q## X003 (ip), vehicle: saline) was 104 % of control and the T/C (endpoint: mean survival time, dose: 2.0 mg/kg/injection, schedule: Q## X024 (ip), vehicle: saline) was 114 % of control. For the same compound, the T/C (endpoint: mean survival time, dose: 3.0 mg/kg/injection, schedule: Q01DX001 (oral), vehicle: saline) was 107 % of control, the T/C (endpoint: mean survival time, dose: 3.75 mg/kg/injection, schedule: Q01DX015 (ip), vehicle: saline) was 153 % of control and the T/C (endpoint: mean survival time, dose: 4.0 mg/kg/injection, schedule: Q01DX001 (ip), vehicle: saline) was 113 % of control. For the same compound, the T/C (endpoint: mean survival time, dose: 4.0 mg/kg/injection, schedule: Q01DX009 (ip), vehicle: saline) was 115 % of control, the T/C (endpoint: mean survival time, dose: 4.0 mg/kg/injection, schedule: Q01DX015 (ip), vehicle: saline) was 150 % of control and the T/C (endpoint: mean survival time, dose: 4.0 mg/kg/injection, schedule: Q04DX003 (ip), vehicle: saline) was 116 % of control. For the same compound, the T/C (endpoint: mean survival time, dose: 4.0 mg/kg/injection, schedule: Q## X002 (ip), vehicle: saline) was 103 % of control, the T/C (endpoint: mean survival time, dose: 4.0 mg/kg/injection, schedule: Q## X003 (ip), vehicle: saline) was 103 % of control and the T/C (endpoint: mean survival time, dose: 4.0 mg/kg/injection, schedule: Q## X008 (ip), vehicle: saline) was 116 % of control. The T/C (endpoint: mean survival time, dose: 4.0 mg/kg/injection, schedule: Q## X016 (ip), vehicle: saline) was 93 % of control, the T/C (endpoint: mean survival time, dose: 4.0 mg/kg/injection, schedule: Q## X024 (ip), vehicle: saline) was 122 % of control and the T/C (endpoint: mean survival time, dose: 6.0 mg/kg/injection, schedule: Q01DX001 (oral), vehicle: saline) was 103 % of control. For the same compound, the T/C (endpoint: mean survival time, dose: 8.0 mg/kg/injection, schedule: Q01DX001 (ip), vehicle: saline) was 111 % of control, the T/C (endpoint: mean survival time, dose: 8.0 mg/kg/injection, schedule: Q01DX005 (ip), vehicle: saline) was 157 % of control and the T/C (endpoint: mean survival time, dose: 8.0 mg/kg/injection, schedule: Q01DX009 (ip), vehicle: saline) was 112 % of control and 86 % of control. The T/C (endpoint: mean survival time, dose: 8.0 mg/kg/injection, schedule: Q04DX003 (ip), vehicle: saline) was 118 % of control, the T/C (endpoint: mean survival time, dose: 8.0 mg/kg/injection, schedule: Q## X002 (ip), vehicle: saline) was 119 % of control and the T/C (endpoint: mean survival time, dose: 8.0 mg/kg/injection, schedule: Q## X003 (ip), vehicle: saline) was 123 % of control. For the same compound, the T/C (endpoint: mean survival time, dose: 8.0 mg/kg/injection, schedule: Q## X008 (ip), vehicle: saline) was 111 % of control, the T/C (endpoint: mean survival time, dose: 8.0 mg/kg/injection, schedule: Q## X016 (ip), vehicle: saline) was 103 % of control and the T/C (endpoint: mean survival time, dose: 8.0 mg/kg/injection, schedule: Q## X024 (ip), vehicle: saline) was 101 % of control. The T/C (endpoint: mean survival time, dose: 12.0 mg/kg/injection, schedule: Q01DX001 (oral), vehicle: saline) was 96 % of control, the T/C (endpoint: mean survival time, dose: 15.0 mg/kg/injection, schedule: Q01DX015 (ip), vehicle: saline) was 104 % of control and the T/C (endpoint: mean survival time, dose: 16.0 mg/kg/injection, schedule: Q01DX001 (ip), vehicle: saline) was 118 % of control. The T/C (endpoint: mean survival time, dose: 16.0 mg/kg/injection, schedule: Q01DX005 (ip), vehicle: saline) was 162 % of control, the T/C (endpoint: mean survival time, dose: 16.0 mg/kg/injection, schedule: Q01DX009 (ip), vehicle: saline) was 123 % of control and the T/C (endpoint: mean survival time, dose: 16.0 mg/kg/injection, schedule: Q01DX015 (ip), vehicle: saline) was 102 % of control. For the same compound, the T/C (endpoint: mean survival time, dose: 16.0 mg/kg/injection, schedule: Q## X002 (ip), vehicle: saline) was 112 % of control, the T/C (endpoint: mean survival time, dose: 16.0 mg/kg/injection, schedule: Q## X016 (ip), vehicle: saline) was 107 % of control and the T/C (endpoint: mean survival time, dose: 16.0 mg/kg/injection, schedule: Q## X024 (ip), vehicle: saline) was 86 % of control. The T/C (endpoint: mean survival time, dose: 24.0 mg/kg/injection, schedule: Q01DX001 (oral), vehicle: saline) was 102 % of control, the T/C (endpoint: mean survival time, dose: 32.0 mg/kg/injection, schedule: Q01DX001 (ip), vehicle: saline) was 111 % of control and the T/C (endpoint: mean survival time, dose: 32.0 mg/kg/injection, schedule: Q04DX003 (ip), vehicle: saline) was 123 % of control. For the same compound, the T/C (endpoint: mean survival time, dose: 48.0 mg/kg/injection, schedule: Q01DX001 (oral), vehicle: saline) was 121 % of control, the T/C (endpoint: mean survival time, dose: 64.0 mg/kg/injection, schedule: Q01DX001 (ip), vehicle: saline) was 118 % of control and the T/C (endpoint: median survival time, dose: 4.0 mg/kg/injection, schedule: Q04DX003 (ip), vehicle: alkali diluted with saline) was 106 % of control. For the same compound, the T/C (endpoint: median survival time, dose: 8.0 mg/kg/injection, schedule: Q04DX003 (ip), vehicle: alkali diluted with saline) was 113 % of control and the T/C (endpoint: median survival time, dose: 16.0 mg/kg/injection, schedule: Q04DX003 (ip), vehicle: alkali diluted with saline) was 121 % of control.

With `COC(=O)[C@H]1[C@H]2C[C@@H]3c4[nH]c5cc(OC)ccc5c4CCN3C[C@H]2C[C@@H](OC(=O)/C=C/c2cc(OC)c(OC)c(OC)c2)[C@@H]1OC` the T/C (endpoint: mean survival time, dose: 3.12 mg/kg/injection, schedule: Q01DX009 (ip), vehicle: Klucel (hydroxypropylcellulose) (HPC)) was 96 % of control, the T/C (endpoint: mean survival time, dose: 6.25 mg/kg/injection, schedule: Q01DX009 (ip), vehicle: Klucel (hydroxypropylcellulose) (HPC)) was 96 % of control and the T/C (endpoint: mean survival time, dose: 12.5 mg/kg/injection, schedule: Q01DX009 (ip), vehicle: Klucel (hydroxypropylcellulose) (HPC)) was 105 % of control. For the same compound, the T/C (endpoint: mean survival time, dose: 25.0 mg/kg/injection, schedule: Q01DX009 (ip), vehicle: Klucel (hydroxypropylcellulose) (HPC)) was 96 % of control, the T/C (endpoint: mean survival time, dose: 25.0 mg/kg/injection, schedule: Q04DX003 (ip), vehicle: Klucel (hydroxypropylcellulose) (HPC)) was 111 % of control and the T/C (endpoint: mean survival time, dose: 50.0 mg/kg/injection, schedule: Q01DX009 (ip), vehicle: Klucel (hydroxypropylcellulose) (HPC)) was 100 % of control. For the same compound, the T/C (endpoint: mean survival time, dose: 50.0 mg/kg/injection, schedule: Q04DX003 (ip), vehicle: Klucel (hydroxypropylcellulose) (HPC)) was 103 % of control.

For `[N-]=[N+]=Nc1c(N=[N+]=[N-])c(NS(=O)(=O)c2ccccc2)c2ccccc2c1NS(=O)(=O)c1ccccc1`, the T/C (endpoint: mean survival time, dose: 100.0 mg/kg/injection, schedule: Q04DX002 (ip), vehicle: saline with Tween-80) was 87 % of control, the T/C (endpoint: mean survival time, dose: 200.0 mg/kg/injection, schedule: Q04DX002 (ip), vehicle: saline with Tween-80) was 97 % of control and the T/C (endpoint: mean survival time, dose: 400.0 mg/kg/injection, schedule: Q04DX002 (ip), vehicle: saline with Tween-80) was 97 % of control.

In the case of `O=C(c1ccc(O)cc1)c1ccc(O)cc1O`, the T/C (endpoint: mean survival time, dose: 100.0 mg/kg/injection, schedule: Q01DX009 (ip), vehicle: saline sonified) is reported as 93 % of control, the T/C (endpoint: mean survival time, dose: 200.0 mg/kg/injection, schedule: Q01DX009 (ip), vehicle: saline sonified) is reported as 98 % of control and the T/C (endpoint: mean survival time, dose: 400.0 mg/kg/injection, schedule: Q01DX009 (ip), vehicle: saline sonified) is reported as 98 % of control.

`CCC(=O)c1ccc(O)c(C)c1` was tested, and the T/C (endpoint: mean survival time, dose: 55.5 mg/kg/injection, schedule: Q01DX Z (ip), vehicle: methylcellulose (MC)) was 98 % of control, the T/C (endpoint: mean survival time, dose: 83.3 mg/kg/injection, schedule: Q01DX Z (ip), vehicle: methylcellulose (MC)) was 96 % of control and the T/C (endpoint: mean survival time, dose: 125.0 mg/kg/injection, schedule: Q01DX Z (ip), vehicle: methylcellulose (MC)) was 102 % of control. For the same compound, the T/C (endpoint: mean survival time, dose: 187.5 mg/kg/injection, schedule: Q01DX Z (ip), vehicle: methylcellulose (MC)) was 103 % of control.

With `CC(C)=NN=C(N)N` the T/C (endpoint: mean survival time, dose: 15.0 mg/kg/injection, schedule: Q01DX Z (ip), vehicle: carboxymethylcellulose (CMC)) was 100 % of control, the T/C (endpoint: mean survival time, dose: 15.0 mg/kg/injection, schedule: Q01DX Z (ip), vehicle: saline) was 107 % of control and the T/C (endpoint: mean survival time, dose: 30.0 mg/kg/injection, schedule: Q01DX Z (ip), vehicle: carboxymethylcellulose (CMC)) was 101 % of control. For the same compound, the T/C (endpoint: mean survival time, dose: 30.0 mg/kg/injection, schedule: Q01DX Z (ip), vehicle: saline) was 101 % of control, the T/C (endpoint: mean survival time, dose: 60.0 mg/kg/injection, schedule: Q01DX Z (ip), vehicle: carboxymethylcellulose (CMC)) was 96 % of control and 106 % of control and the T/C (endpoint: mean survival time, dose: 60.0 mg/kg/injection, schedule: Q01DX Z (ip), vehicle: saline) was 95 % of control. The T/C (endpoint: mean survival time, dose: 60.0 mg/kg/injection, schedule: Q01DX Z (oral), vehicle: saline) was 92 % of control, the T/C (endpoint: mean survival time, dose: 120.0 mg/kg/injection, schedule: Q01DX Z (ip), vehicle: carboxymethylcellulose (CMC)) was 93 % of control and 95 % of control and the T/C (endpoint: mean survival time, dose: 120.0 mg/kg/injection, schedule: Q01DX Z (ip), vehicle: saline) was 95 % of control. The T/C (endpoint: mean survival time, dose: 120.0 mg/kg/injection, schedule: Q01DX Z (oral), vehicle: carboxymethylcellulose (CMC)) was 106 % of control, the T/C (endpoint: mean survival time, dose: 120.0 mg/kg/injection, schedule: Q01DX Z (oral), vehicle: saline) was 109 % of control and the T/C (endpoint: mean survival time, dose: 240.0 mg/kg/injection, schedule: Q01DX Z (ip), vehicle: carboxymethylcellulose (CMC)) was 101 % of control. The T/C (endpoint: mean survival time, dose: 240.0 mg/kg/injection, schedule: Q01DX Z (ip), vehicle: saline) was 88 % of control, the T/C (endpoint: mean survival time, dose: 240.0 mg/kg/injection, schedule: Q01DX Z (oral), vehicle: carboxymethylcellulose (CMC)) was 102 % of control and the T/C (endpoint: mean survival time, dose: 240.0 mg/kg/injection, schedule: Q01DX Z (oral), vehicle: saline) was 97 % of control. For the same compound, the T/C (endpoint: mean survival time, dose: 480.0 mg/kg/injection, schedule: Q01DX Z (oral), vehicle: carboxymethylcellulose (CMC)) was 116 % of control and the T/C (endpoint: mean survival time, dose: 480.0 mg/kg/injection, schedule: Q01DX Z (oral), vehicle: saline) was 92 % of control.

For `OCN(CO)c1ccc2c(c1)Cc1cc(F)ccc1-2`, the T/C (endpoint: mean survival time, dose: 100.0 mg/kg/injection, schedule: Q04DX003 (ip), vehicle: acetone) was 107 % of control and the T/C (endpoint: mean survival time, dose: 200.0 mg/kg/injection, schedule: Q04DX003 (ip), vehicle: acetone) was 98 % of control.

— PubChem BioAssay AID248 (DTP/NCI, 2004)
